Holding throughout (assay type): biochemical
One assay has as its target T1, JAK1 (Homo sapiens, UniProt P23458).
T1 construct: made in house; host or cells: SF9 insect cells (baculovirus)
Description: JAK1 inhibition (Table 4).

A further assay concerns the target T2, TYK2 (Homo sapiens, UniProt P29597).
T2 construct: made in house; host or cells: SF9 insect cells (baculovirus)
T2 sequence (P29597 873-1187): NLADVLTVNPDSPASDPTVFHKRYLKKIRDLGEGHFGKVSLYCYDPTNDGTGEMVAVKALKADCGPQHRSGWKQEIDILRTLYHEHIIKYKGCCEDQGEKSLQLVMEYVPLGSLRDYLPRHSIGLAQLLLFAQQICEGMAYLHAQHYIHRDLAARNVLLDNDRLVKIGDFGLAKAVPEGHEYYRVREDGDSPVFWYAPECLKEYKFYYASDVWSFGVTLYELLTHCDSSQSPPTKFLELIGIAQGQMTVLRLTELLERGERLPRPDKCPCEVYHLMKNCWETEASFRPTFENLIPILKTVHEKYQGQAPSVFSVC
Description: TYK2 inhibition (Table 4).

The target of another assay is T3, JAK3 (Homo sapiens, UniProt P52333).
T3 construct: made in house; host or cells: SF9 insect cells (baculovirus)
Description: JAK3 inhibition (Table 4).

Another assay has as its target T4, JAK2 (Homo sapiens, UniProt O60674).
T4 construct: made in house; host or cells: SF9 insect cells (baculovirus)
The assay can be described thus: JAK2 inhibition (Table 4). Conditions: read-out: JAK2 Ki.

Data on 11 compounds can be found in patent US8461328B2, “Tricyclic heterocyclic compounds, compositions and methods of use thereof” (Genentech, Inc., priority 2010, dated 2013).

Usually pKi stands for the Ki on a negative log10 scale, so that one unit is a factor of ten.

pKi: −log10 of the molar value. Where two headings read alike, the source gives them in different places.

T3 sequence (P52333 783-1124): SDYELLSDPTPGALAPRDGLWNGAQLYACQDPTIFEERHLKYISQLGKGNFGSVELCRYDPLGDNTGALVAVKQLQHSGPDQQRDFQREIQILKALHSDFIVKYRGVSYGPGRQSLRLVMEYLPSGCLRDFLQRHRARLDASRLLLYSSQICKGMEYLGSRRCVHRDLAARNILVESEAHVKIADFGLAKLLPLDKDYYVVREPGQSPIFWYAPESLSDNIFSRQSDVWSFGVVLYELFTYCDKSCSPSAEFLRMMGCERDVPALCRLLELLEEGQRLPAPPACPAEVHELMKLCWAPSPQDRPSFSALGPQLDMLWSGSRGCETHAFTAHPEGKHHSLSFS
T1 sequence (P23458 852-1154): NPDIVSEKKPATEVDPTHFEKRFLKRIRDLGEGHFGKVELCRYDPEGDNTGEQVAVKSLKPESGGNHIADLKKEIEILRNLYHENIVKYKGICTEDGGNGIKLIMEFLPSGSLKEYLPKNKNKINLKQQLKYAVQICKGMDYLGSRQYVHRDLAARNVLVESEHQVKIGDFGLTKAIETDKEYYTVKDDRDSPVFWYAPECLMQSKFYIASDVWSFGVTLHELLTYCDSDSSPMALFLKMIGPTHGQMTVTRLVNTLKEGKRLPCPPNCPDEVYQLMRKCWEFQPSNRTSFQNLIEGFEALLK
T4 sequence (O60674 812-1132): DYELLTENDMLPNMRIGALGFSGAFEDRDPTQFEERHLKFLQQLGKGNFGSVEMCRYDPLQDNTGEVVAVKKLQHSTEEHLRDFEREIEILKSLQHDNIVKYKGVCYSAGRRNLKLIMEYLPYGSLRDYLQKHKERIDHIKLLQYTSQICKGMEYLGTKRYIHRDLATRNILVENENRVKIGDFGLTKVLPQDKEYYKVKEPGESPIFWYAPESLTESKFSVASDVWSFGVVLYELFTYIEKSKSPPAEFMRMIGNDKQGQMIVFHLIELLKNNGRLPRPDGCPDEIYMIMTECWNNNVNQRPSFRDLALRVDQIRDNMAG

Turning to `CS(=O)(=O)CC(=O)N1CCC[C@@H](n2cnc3cnc4[nH]ccc4c32)C1` [Example 79, 2-Methanesulfonyl-1-[(R)-3-(6H-1,3,5,6-tetraaza-as-indacen-1-yl)-piperidin-1-yl]ethanone], the negative logarithm of the Ki (pKi) at JAK1 (read-out: JAK1 Ki) is 7.80; on TYK2, 6.78; at JAK3 (read-out: JAK3 Ki), 7.11; on JAK2, 7.65.
As for `O=S(=O)(C1CCCC1)N1CCC(n2cnc3cnc4[nH]ccc4c32)CC1` [Example 443, 1-(1-Cyclopentanesulfonyl-piperidin-4-yl)-1,6-dihydro-1,3,5,6-tetraaza-as-indacene], the negative logarithm of the Ki (pKi) at JAK1 (read-out: JAK1 Ki) is 8.09; on TYK2, 7.33; on JAK3 (read-out: JAK3 Ki) it was 6.38; at JAK2 it was 7.86.
On to `OCCN1CCC(n2cnc3cnc4[nH]ccc4c32)CC1` [Example 338, 2-[4-(6H-1,3,5,6-Tetraaza-as-indacen-1-yl)-piperidin-1-yl]-ethanol], for which the pKi at JAK1 (read-out: JAK1 Ki) is 7.67; at TYK2 it was 6.80; at JAK3 (read-out: JAK3 Ki) it was 6.54; at JAK2 it was 7.30.
On to `OCCOc1nc2cnc3[nH]ccc3c2n1C1CCCOC1` (racemic) [Example 780, 2-[1-(Tetrahydro-pyran-3-yl)-1,6-dihydro-1,3,5,6-tetraaza-as-indacen-2-yloxy]-ethanol], for which the negative-log Ki (pKi) on JAK1 (read-out: JAK1 Ki) was 7.80; on TYK2, 6.96; on JAK3 (read-out: JAK3 Ki), 7.13; at JAK2, 7.38.
On to `N#CC[C@H]1CC[C@H](n2c(CO)nc3cnc4[nH]ccc4c32)CC1` [Example 645, Trans[4-(2-hydroxymethyl-6H-1,2,3,5,6-tetraaza-as-indacen-1-yl)-cyclohexyl]-acetonitrile], for which the negative-log Ki (pKi) at JAK1 (JAK1 Ki) was 9.89; at TYK2, 9.60; at JAK3 (JAK3 Ki) it was 8.45; at JAK2, 9.41.
With `COCCNC(=O)N(C)[C@H]1CC[C@H](n2cnc3cnc4[nH]ccc4c32)CC1` [Example 592, Trans 3-(2-Methoxy-ethyl)-1-methyl-1-[4-(6H-1,2,3,5,6-tetraaza-as-indacen-1-yl)-cyclohexyl]-urea], the pKi at JAK1 (read-out: JAK1 Ki) is 7.92; at TYK2, 6.67; on JAK3 (read-out: JAK3 Ki) it was 6.46; on JAK2, 7.81.
For the compound `CC(CC#N)N1CCC(n2c(CS(C)(=O)=O)nc3cnc4[nH]ccc4c32)CC1` (racemic) [Example 396, 3-[4-(2-Methanesulfonylmethyl-6H-1,3,5,6-tetraaza-as-indacen-1-yl)-piperidin-1-yl]-butyronitrile], the pKi is 7.81 on JAK1 (read-out: JAK1 Ki), 7.02 on TYK2, 7.74 at JAK3 (read-out: JAK3 Ki) and 7.44 on JAK2.
For `N#CCC(=O)N1CC(n2cnc3cnc4[nH]ccc4c32)C1` [Example 38, 3-Oxo-3-[3-(6H-1,3,5,6-tetraaza-as-indacen-1-yl)-azetidin-1-yl]propionitrile], the pKi on JAK1 (read-out: JAK1 Ki) was 6.38; at TYK2, 5.71; on JAK3 (read-out: JAK3 Ki), 6.15; at JAK2, 6.50.
On to `O[C@@H]1CC[C@@H](n2cnc3cnc4[nH]ccc4c32)C1` [Example 711, (1R,3R)-3-(6H-1,2,3,5,6-Tetraaza-as-indacen-1-yl)-cyclopentanol], for which the negative-log Ki (pKi) was 7.85 at JAK1 (read-out: JAK1 Ki), 7.15 on TYK2, 7.80 at JAK3 (read-out: JAK3 Ki) and 7.43 on JAK2.
With `Cc1nc2cnc3[nH]ccc3c2n1[C@@H]1CCC[C@@](C)(O)C1` [Example 892, (1R,3R)-1-Methyl-3-(2-methyl-6H-1,3,5,6-tetraaza-as-indacen-1-yl)-cyclohexanol], the pKi on JAK1 (read-out: JAK1 Ki) was 7.09; at TYK2 it was 6.94; at JAK3 (read-out: JAK3 Ki), 6.89; on JAK2, 6.84.
In the case of `Cc1noc(C)c1S(=O)(=O)N1CCC(n2cnc3cnc4[nH]ccc4c32)CC1` [Example 447, 1-[1-(3,5-Dimethyl-isoxazole-4-sulfonyl)-piperidin-4-yl]-1,6-dihydro-1,3,5,6-tetraaza-as-indacene], the pKi at JAK1 (read-out: JAK1 Ki) was 7.79; on TYK2, 7.07; at JAK3 (read-out: JAK3 Ki), 6.32; at JAK2, 7.67.
